Assay results as given in the NIST ThermoML archive (doi:10.1016/j.fluid.2019.01.021).

Details: Liquid, Capillary tube (Ostwald / Ubbelohde) method

CC(C)CC(C)(C)C [2,2,4-trimethylpentane]
298.15 K
Details | viscosity [mPa·s]
100 kPa | 0.48
26000 kPa | 0.641
50000 kPa | 0.809
100000 kPa | 1.207
200000 kPa | 2.35
312000 kPa | 4.41
407000 kPa | 7.7
499000 kPa | 12.63
600000 kPa | 21.3
700000 kPa | 36.4
800000 kPa | 61.5
900000 kPa | 104.8

CCC(C)CC(C)(C)C (stereo unspecified) [2,2,4-trimethylhexane]
293.15 K
Details | viscosity [mPa·s]
100 kPa | 0.64
25000 kPa | 0.844
50000 kPa | 1.101
100000 kPa | 1.71
150000 kPa | 2.54
250000 kPa | 5.31
350000 kPa | 10.67
400000 kPa | 15
500000 kPa | 30.9
600000 kPa | 62.9
700000 kPa | 126.9
800000 kPa | 264
900000 kPa | 558
1000000 kPa | 1187
